Experimental data taken from paper PMC2778829, “Functional Characterization of the Canine Heme-Regulated eIF2α Kinase: Regulation of Protein Synthesis” (Advances in Hematology, 2009).

What was measured:
Type in all cases: biochemical
[1] = target: T1, mouse heme-regulated inhibitor (HRI), heme-regulated eIF2α kinase (Mus musculus, UniProt Q9Z2R9); experiment: in-vitro kinase assay (AlphaScreen) with purified HRI
T1 construct: gene Eif2ak1; expressed in Sf9 cells, purified by Ni-NTA

[2] = target: T2, canine heme-regulated inhibitor (HRI), heme-regulated eIF2α kinase (Canis lupus, UniProt C4PB17); experiment: AlphaScreen kinase assay with purified HRI, biotinylated Poly-GT substrate, […] ATP
T2 construct: full-length HRI, His6-tagged, expressed in Sf9 cells

[3] = target: T3, human heme-regulated inhibitor (HRI), heme-regulated eIF2α kinase (Homo sapiens, UniProt Q9BQI3); experiment: in-vitro kinase assay (AlphaScreen) with purified HRI
T3 construct: gene EIF2AK1; expressed in Sf9 cells, purified by Ni-NTA

Measured: IC50

T3 sequence (Q9BQI3 whole entry): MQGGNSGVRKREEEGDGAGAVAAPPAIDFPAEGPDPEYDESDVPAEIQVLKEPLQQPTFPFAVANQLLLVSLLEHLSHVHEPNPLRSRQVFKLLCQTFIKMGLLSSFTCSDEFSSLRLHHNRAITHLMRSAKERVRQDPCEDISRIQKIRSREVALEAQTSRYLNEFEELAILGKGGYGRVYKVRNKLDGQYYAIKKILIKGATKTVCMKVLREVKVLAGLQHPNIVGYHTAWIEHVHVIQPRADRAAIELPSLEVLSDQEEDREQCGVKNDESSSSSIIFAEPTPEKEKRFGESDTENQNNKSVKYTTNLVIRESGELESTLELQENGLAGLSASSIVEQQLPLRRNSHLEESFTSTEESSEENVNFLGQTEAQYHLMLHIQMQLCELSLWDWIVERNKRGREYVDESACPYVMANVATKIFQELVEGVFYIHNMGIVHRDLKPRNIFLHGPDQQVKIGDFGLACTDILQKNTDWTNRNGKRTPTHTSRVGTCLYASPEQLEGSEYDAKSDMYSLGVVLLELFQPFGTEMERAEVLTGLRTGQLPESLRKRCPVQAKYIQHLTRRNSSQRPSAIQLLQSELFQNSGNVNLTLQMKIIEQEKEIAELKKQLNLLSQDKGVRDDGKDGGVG
T1 sequence (Q9Z2R9 whole entry): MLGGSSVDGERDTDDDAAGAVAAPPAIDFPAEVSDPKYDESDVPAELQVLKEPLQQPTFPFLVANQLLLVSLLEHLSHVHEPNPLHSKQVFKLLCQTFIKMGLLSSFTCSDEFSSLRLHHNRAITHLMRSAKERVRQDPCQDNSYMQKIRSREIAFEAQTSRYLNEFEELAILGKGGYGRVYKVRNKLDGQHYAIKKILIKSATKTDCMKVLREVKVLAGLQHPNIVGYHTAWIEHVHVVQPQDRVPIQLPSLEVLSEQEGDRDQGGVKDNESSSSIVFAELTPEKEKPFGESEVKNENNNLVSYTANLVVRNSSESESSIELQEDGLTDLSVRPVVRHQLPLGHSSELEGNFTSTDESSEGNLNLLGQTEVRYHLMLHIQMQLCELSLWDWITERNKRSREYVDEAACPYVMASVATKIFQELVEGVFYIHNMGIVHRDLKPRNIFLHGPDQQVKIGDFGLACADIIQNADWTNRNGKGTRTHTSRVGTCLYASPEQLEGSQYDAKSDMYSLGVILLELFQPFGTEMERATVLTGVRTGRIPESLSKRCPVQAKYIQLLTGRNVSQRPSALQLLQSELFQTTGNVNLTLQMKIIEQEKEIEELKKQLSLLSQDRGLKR
T2 sequence (C4PB17 1-630): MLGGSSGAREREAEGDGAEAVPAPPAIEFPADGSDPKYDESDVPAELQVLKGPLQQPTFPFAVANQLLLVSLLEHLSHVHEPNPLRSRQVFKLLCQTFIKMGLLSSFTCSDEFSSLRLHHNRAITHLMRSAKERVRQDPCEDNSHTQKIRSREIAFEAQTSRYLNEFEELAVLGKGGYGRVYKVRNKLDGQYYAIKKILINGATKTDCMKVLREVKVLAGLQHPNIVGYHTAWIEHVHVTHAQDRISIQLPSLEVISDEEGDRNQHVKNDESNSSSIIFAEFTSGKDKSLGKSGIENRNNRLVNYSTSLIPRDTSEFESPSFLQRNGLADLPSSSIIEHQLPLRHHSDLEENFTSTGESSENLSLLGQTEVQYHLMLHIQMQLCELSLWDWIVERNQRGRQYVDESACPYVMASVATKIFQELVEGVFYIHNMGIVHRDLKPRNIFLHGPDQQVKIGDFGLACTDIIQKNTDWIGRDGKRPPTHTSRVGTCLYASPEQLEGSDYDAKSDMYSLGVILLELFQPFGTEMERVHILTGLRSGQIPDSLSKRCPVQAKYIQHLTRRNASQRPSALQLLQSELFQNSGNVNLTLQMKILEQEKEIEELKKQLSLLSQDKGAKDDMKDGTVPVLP

O=c1c(O)c(-c2ccc(O)c(O)c2)oc2cc(O)cc(O)c12 [quercetin, 3,3′,4′,5,7-pentahydroxyflavone]
~1000 nM: all assays above
